Patent US10111936B2, “Metal-glycoprotein complexes and photodynamic therapy of immune privileged sites with same” (Theralase Technologies, Inc., priority 2015, dated 2018)
Like-named read-outs stand apart in the source and are kept apart here.

How the values were obtained:
[1] = Singlet oxygen production, cell free (SOG indicator fluorescence); format: physicochemical; set-up: unit not given here
Method: The photosensitizers were diluted in phosphate buffer (pH=7.0)+100 mM NaCl or incomplete DMEM. The irradiation was performed in 96-well plates (100 uL working volume). Generation of singlet oxygen was measured by fluorescence signal of SOG indicator, generation of hydroxyl radical by fluorescence signal of HPF indicator. The signal presented is a result of subtraction of the signal in the presence of scavengers (NaN3 for singlet oxygen and DMTU for hydroxyl radical) from the total fluorescence signal.

Subcutaneous tumors = assay: In vivo PDT of subcutaneous tumors in mouse thighs
Method: Subcutaneous tumors were grown in mouse thighs and PDT (808 nm, 600 Jcm^−2) was performed when tumor reached 5×5 mm in size. Mice were sacrificed if tumor continued to grow after PDT treatment and reached 10×10 mm.
Subcutaneous tumors were grown in mouse thighs and PDT (635 nm, 192 Jcm^−2) was performed when tumor reached 5×5 mm in size. Mice were sacrificed if tumor continued to grow after PDT treatment and reached 10×10 mm.
Subcutaneous tumors were grown in mouse thighs and PDT (525 nm, 90 Jcm^−2) was performed when tumor reached 5×5 mm in size. Mice were sacrificed if tumor continued to grow after PDT treatment and reached 10×10 mm.

AY27 cancer cells = assay: Transferrin receptor antibody blocking, dark toxicity and PDT effect; format: cell-based; conditions: 635 nm, 90 J cm−2, anti-transferrin receptor antibody
Method: The cells were incubated with anti-transferrin receptor antibody. The photosensitizer was pre-mixed in parallel with 0.4 mg/mL human transferrin and incubated for 1 hour at 37° C. In control group (no additional transferrin), equivalent volume of no-transferrin medium was added. The cells were washed of the excess of antibody (the cells incubated in medium without antibody served as comparison groups) and incubated with the pre-mixes for 30 minutes. After that, the medium was replaced with a fresh one (without photosensitizer and transferrin) and the cells were irradiated. On the next day (21 hours post-irradiation), viability of the cells was measured using Presto Blue viability assay, and percent of cell kill was calculated. The PDT effect shown is a result of subtraction of “photosensitizer alone” and “light alone” cell kill from the total PDT cell kill. Dark toxicity is shown on FIG. 20A, PDT effect is shown on FIG. 20B.
(§1) The cells were incubated with anti-transferrin antibody. […] On the next day (21 hours post-irradiation), viability of the cells was measured using Presto Blue viability assay, and percent of cell kill was calculated. […]
as §1

U87 cells [2] = assay: Intracellular uptake by ICP-MS, cancer cells; format: cell-based, human; conditions: 200 uM photosensitizer, 0.8 mg/mL transferrin, 4 hours
Method: Cell culture (U87 cells) was exposed to 200 uM of the photosensitizer without additional transferrin and in the presence of 0.8 mg/mL transferrin for 4 hours. The incubation mix was washed away and the cells were collected, counted, and lysed. Lysed solution was dissolved in nitric acid and appropriate metals concentration was measured using inductively coupled plasma mass spectrometry. The metals concentration is directly proportional to the concentration of the photosensitizer.

[3] = Fluorescence with and without transferrin; format: physicochemical; conditions: for fluorescence emission maximum: 10 uM
Method: Fluorescence of TLD1433 (10 uM) was measured quartz cuvettes without Tf (in water) and in the presence of 0.2 mg/mL Tf (in phosphate buffer+100 mM NaCl, pH=7.0). Fluorescence was measured at different excitation wavelengths (380, 400, 450, 470, 500 nm).
Fluorescence of TLDOsH2dppn (10 uM) was measured quartz cuvettes without Tf (in water) and in the presence of 0.2 mg/mL Tf (in phosphate buffer+100 mM NaCl, pH=7.0). Fluorescence was measured at different excitation wavelengths (380, 400, 450, 470, 500 nm).

U87 cells [4] = system: U87 cells
[5] = 530 nm, 90 J cm−2, no transferrin
[6] = 650 nm, 90 J cm−2, no transferrin

Q: Which results are given for [Os+2].c1ccc2cc3nc4c5cccnc5c5ncccc5c4nc3cc2c1.c1ccc2nc(-c3ccc4ccccc4n3)ccc2c1.c1ccc2nc(-c3ccc4ccccc4n3)ccc2c1 [TLDOsH2dppn]?
A: singlet oxygen production ([1]; 530 nm & 1092 J cm−2, incomplete DMEM, 0.8 mg/mL transferrin): 35127; singlet oxygen production ([1]; 530 nm & 1092 J cm−2, incomplete DMEM, 1.6 mg/mL transferrin): 43927; singlet oxygen production ([1]; 530 nm & 1092 J cm−2, incomplete DMEM, 3.2 mg/mL transferrin): 61734; singlet oxygen production ([1]; 530 nm & 1092 J cm−2, incomplete DMEM, no transferrin): 36391; singlet oxygen production ([1]; 530 nm & 1092 J cm−2, phosphate buffer, 0.8 mg/mL transferrin): 42816; singlet oxygen production ([1]; 530 nm & 1092 J cm−2, phosphate buffer, 1.6 mg/mL transferrin): 56372; singlet oxygen production ([1]; 530 nm & 1092 J cm−2, phosphate buffer, 3.2 mg/mL transferrin): 77219; singlet oxygen production ([1]; 530 nm & 1092 J cm−2, phosphate buffer, no transferrin): 25937; singlet oxygen production ([1]; 635 nm & 649 J cm−2, incomplete DMEM, 0.8 mg/mL transferrin): 53931; singlet oxygen production ([1]; 635 nm & 649 J cm−2, incomplete DMEM, 1.6 mg/mL transferrin): 75293; singlet oxygen production ([1]; 635 nm & 649 J cm−2, incomplete DMEM, 3.2 mg/mL transferrin): 81807; singlet oxygen production ([1]; 635 nm & 649 J cm−2, incomplete DMEM, no transferrin): 15109; singlet oxygen production ([1]; 635 nm & 649 J cm−2, phosphate buffer, 0.8 mg/mL transferrin): 42837; singlet oxygen production ([1]; 635 nm & 649 J cm−2, phosphate buffer, 1.6 mg/mL transferrin): 51832; singlet oxygen production ([1]; 635 nm & 649 J cm−2, phosphate buffer, 3.2 mg/mL transferrin): 72938; singlet oxygen production ([1]; 635 nm & 649 J cm−2, phosphate buffer, no transferrin): 10392; singlet oxygen production ([1]; 808 nm & 4000 J cm−2, incomplete DMEM, 0.8 mg/mL transferrin): 25384; singlet oxygen production ([1]; 808 nm & 4000 J cm−2, incomplete DMEM, 1.6 mg/mL transferrin): 55631; singlet oxygen production ([1]; 808 nm & 4000 J cm−2, incomplete DMEM, 3.2 mg/mL transferrin): 62804; singlet oxygen production ([1]; 808 nm & 4000 J cm−2, incomplete DMEM, no transferrin): 11907; singlet oxygen production ([1]; 808 nm & 4000 J cm−2, phosphate buffer, 0.8 mg/mL transferrin): 10000; singlet oxygen production ([1]; 808 nm & 4000 J cm−2, phosphate buffer, 1.6 mg/mL transferrin): 30000; singlet oxygen production ([1]; 808 nm & 4000 J cm−2, phosphate buffer, 3.2 mg/mL transferrin): 40000; singlet oxygen production ([1]; 808 nm & 4000 J cm−2, phosphate buffer, no transferrin): 8000; Survival by day 80 (Subcutaneous tumors; PDT 525 nm, 90 Jcm−2, with transferrin): 78%; Survival by day 80 (Subcutaneous tumors; PDT 525 nm, 90 Jcm−2, without transferrin): 37%; Survival by day 80 (Subcutaneous tumors; PDT 635 nm, 192 Jcm−2, with transferrin): 75%; Survival by day 80 (Subcutaneous tumors; PDT 635 nm, 192 Jcm−2, without transferrin): 35%; Survival by day 80 (Subcutaneous tumors; PDT 808 nm, 600 Jcm−2, with transferrin): 80%; Survival by day 80 (Subcutaneous tumors; PDT 808 nm, 600 Jcm−2, without transferrin): 40%; effect of blocking transferrin receptors on dark toxicity and PDT effect (AY27 cancer cells): prevents decrease in dark toxicity and facilitation of PDT effect; uptake into cancer cells, effect of transferrin (U87 cells [2]): transferrin facilitated uptake; fluorescence emission maximum ([3]; 0.2 mg/mL transferrin): 650 nm; fluorescence emission maximum ([3]; no transferrin (in water)): 660 nm; fluorescence in the presence of transferrin ([3]; 0.2 mg/mL transferrin, especially at 470 nm excitation): strongly increased; Therapeutic Ratio (HT1376 cells; [5]): 1548.2; Therapeutic Ratio (HT1376 cells; 530 nm, 90 J cm−2, transferrin): 4963.8; Therapeutic Ratio (HT1376 cells; 650 nm, 90 J cm−2, no transferrin (cell not marked prophetic)): 37.7; Therapeutic Ratio (HT1376 cells; 650 nm, 90 J cm−2, transferrin): 61.9; Therapeutic Ratio (U87 cells [4]; [5]): 1307.3; Therapeutic Ratio (U87 cells [4]; 530 nm, 90 J cm−2, transferrin): 5238.0; Therapeutic Ratio (U87 cells [4]; [6]): 15.3; Therapeutic Ratio (U87 cells [4]; 650 nm, 90 J cm−2, transferrin): 50.3; Therapeutic Ratio (AY27 cells; [5]): 1639.8; Therapeutic Ratio (AY27 cells; 530 nm, 90 J cm−2, transferrin): 5531.9; Therapeutic Ratio (AY27 cells; [6]): 28.7; Therapeutic Ratio (AY27 cells; 650 nm, 90 J cm−2, transferrin): 61.7
